How the values were obtained:
[1] = system: phosphorylated NDRG1 (pNDRG1/NDRG1); test: Western blot of phosphorylated NDRG1 in human hepatocytes; assay type: cell-based; details: 3 μM, mTORC2 pathway, time point not stated
Procedure: (§1) Levels of phosphorylated S6, AKT, and NDRG1 proteins were determined as compared to total S6, AKT, and NDRG1 protein. PNPLA3 mRNA expression was quantified and normalized to housekeeping gene GUSB.

[2] = system: PCSK9 mRNA in mouse liver; test: High sucrose diet mouse dose response study, liver PCSK9 mRNA; assay type: in vivo; details: HS diet mice, 6 hours post dose
Procedure: (§2) C57BL/6J mice were divided into 14 groups. Each group had 6 male mice. All mice were given an HS diet at night on a synchronized schedule. […] The animals received no food at night on Day 10.
(§3) Mouse liver tissues were pulverized in liquid nitrogen and aliquoted into small microtubes. TRIzol (Invitrogen Cat #15596026) was added to the tubes to facilitate cell lysis from tissue samples. The TRIzol solution containing the disrupted tissue was then centrifuged and the supernatant phase was collected. Total RNA was extracted from the supernatant using Qiagen RNA Extraction Kit (Qiagen Cat #74182) and the target mRNA levels were analyzed using qRT-PCR. mRNA levels for PNPLA3, PNPLA5, COL1A1, and PCSK9 were assessed.

[3] = system: COL1A1 mRNA in mouse liver; test: High sucrose diet mouse dose response study, liver COL1A1 mRNA; assay type: in vivo; details: HS diet mice, 6 hours post dose
Procedure: as §2, §3

[4] = system: phosphorylated S6 (pS6/S6); test: Western blot of phosphorylated S6 in human hepatocytes; assay type: cell-based; details: 3 μM
Procedure: as §1

PNPLA3 mRNA [5] = test: qRT-PCR of PNPLA3 mRNA in human primary hepatic stellate cells; assay type: cell-based; details: for Relative PNPLA3 level vs Untreated (±Standard Deviation): normalized to GAPDH
[6] = system: PNPLA3 mRNA in mouse liver; test: High sucrose diet mice, liver PNPLA3 mRNA after five doses (Example 31); assay type: in vivo
Procedure: Mouse 7-8 week old C57BL/6J mice were divided into 9 groups. Each group had 8 male mice. All mice were given a high sucrose diet for 10 days (Diet no. 901683; 74% kCal from sucrose. MP Biomedicals, Santa Ana, Calif.) at the start of the dark cycle, about 7 pm. Food was removed at the start of the light cycle, about 7 am, except on the last day, when food was left in the cage until termination. On day 7-10, mice were administered daily (QD) via oral gavage, candidate compounds at a volume of 10 mL/kg with the compound in vehicle solution (0.5% methylcellulose/0.2% tween20). Vehicle alone was administered to control group 1. OSI-027 was administered at 25 mg/kg, 10 mg/kg, 5 mg/kg, and 2 mg/kg to groups 2-5. […] The treatment was administered in the evening on Days 7 to 10 and in the morning on Day 11, starting at 5 am. On Day 11, mice were terminated 4 hours post last dose at 9 am, for a total of 5 doses of each candidate compound. Mice were weighed 2×/week until Day 11. Liver and blood samples were collected after mice were terminated. Liver samples were process for mRNA extraction as previously described. Blood samples were processed for serum collection. The geometric mean for the mRNA analysis was calculated by averaging the PCR CTs from the housekeepering genes ACTB, GAPDH, GUSB, HPRT, and B2M from the same cDNA sample.

PNPLA3 mRNA [7] = test: qRT-PCR of PNPLA3 mRNA in compound-treated mouse hepatocytes; assay type: cell-based; details: mouse hepatocytes, 1 μM, normalized to ACTB
Procedure: Analysis of the fold changes in expression as measured by qRT-PCR were performed using the technique below. The control was DMSO, and the treatment was the selected compound (CPD). The internal control was GAPDH or B-Actin (or otherwise indicated), and the gene of interest is the target. First, the averages of the 4 conditions were calculated for normalization: DMSO:GAPDH, DMSO:Target, CPD: GAPDH, and CPD:Target. Next, the ΔCT of both control and treatment were calculated to normalize to internal control (GAPDH) using (DMSO:Target)−(DMSO:GAPDH)=ΔCT control and (CPD:Target)−(CPD: GAPDH)=ΔCT experimental. Then, the ΔΔCT was calculated by ΔCT experimental−ΔCT control. The Expression Fold Change (or Relative Quantification, abbreviated as RQ) was calculated by 2−(ΔΔCT) (2-fold expression change was shown by RNA-Seq results provided herein).
Compounds were tested at concentrations ranging from 0.01 μM to 50 μM. […] PNPLA3 levels were normalized to the level of a house keeping gene ACTB.

[8] = system: phosphorylated AKT (pAKT/AKT); test: Western blot of phosphorylated AKT in human hepatocytes; assay type: cell-based; details: 3 μM
Procedure: as §1

[9] = system: PNPLA3 mRNA in mouse liver; test: High sucrose diet mouse pharmacology study, liver PNPLA3 mRNA; assay type: in vivo
Procedure: LY2157299 was also tested in vivo. C57BL/6J mice were divided into […]. Each group had 6 male mice. […] Groups 1-10 received food throughout the dosing period. […] Eyes were also collected for groups 11-14.
Mouse liver tissues were pulverized in liquid nitrogen and aliquoted into small microtubes. TRIzol (Invitrogen Cat #15596026) was added to the tubes to facilitate cell lysis from tissue samples. The TRIzol solution containing the disrupted tissue was then centrifuged and the supernatant phase was collected. Total RNA was extracted from the supernatant using Qiagen RNA Extraction Kit (Qiagen Cat#74182) and the PNPLA3 mRNA levels were analyzed using qRT-PCR.
as §2, §3

[10] = 35 min to 20 hrs, relative to DMSO control

Compound: COc1cccc2cc(-c3nc([C@H]4CC[C@H](C(=O)O)CC4)n4ncnc(N)c34)[nH]c12 [OSI-027]
- p-NDRG1/NDRG1 [1]: 0.46
- PCSK9 liver mRNA, dose titration (in words) [2]: dose dependent decrease
- COL1A1 liver mRNA, dose titration (in words) [3]: did not result in a significant decrease in COL1A1 mRNA
- phosphorylated S6 (pS6/S6) over time (in words) [4, 10]: decreased at 1 hour
- pS6/S6 ([4]; human hepatocytes, mTORC1 pathway, time point not stated): 0.06
- Relative PNPLA3 mRNA expression (PNPLA3 mRNA [5]; 0.04 uM, Table 36 (cell type not given)): 1.071
- Relative PNPLA3 mRNA expression (PNPLA3 mRNA [5]; 0.122 uM, Table 36): 0.795
- Relative PNPLA3 mRNA expression (PNPLA3 mRNA [5]; 0.37 uM, Table 36): 0.427
- Primary Stellate cells PNPLA3 (fold change in mRNA expression) (PNPLA3 mRNA [5]; 3 μM, relative to GAPDH): 0.57
- Relative PNPLA3 mRNA expression (PNPLA3 mRNA [5]; 3.3 uM, Table 36): 0.262
- Relative PNPLA3 level vs Untreated (±Standard Deviation) (PNPLA3 mRNA [5]; (I/I) homozygous human stellate cells, 0.00045 uM): 1.25 ± 0.10
- Relative PNPLA3 level vs Untreated (±Standard Deviation) (PNPLA3 mRNA [5]; (I/I) homozygous human stellate cells, 0.012 uM): 0.89 ± 0.05
- Relative PNPLA3 level vs Untreated (±Standard Deviation) (PNPLA3 mRNA [5]; (I/I) homozygous human stellate cells, 0.037 uM): 0.97 ± 0.12
- Relative PNPLA3 level vs Untreated (±Standard Deviation) (PNPLA3 mRNA [5]; (I/I) homozygous human stellate cells, 0.33 uM): 0.57 ± 0.05
- Relative PNPLA3 level vs Untreated (±Standard Deviation) (PNPLA3 mRNA [5]; (I/I) homozygous human stellate cells, 1 uM): 0.62 ± 0.09
- Relative PNPLA3 level vs Untreated (±Standard Deviation) (PNPLA3 mRNA [5]; (M/M) homozygous human stellate cells, 0.00045 uM): 0.96 ± 0.12
- Relative PNPLA3 level vs Untreated (±Standard Deviation) (PNPLA3 mRNA [5]; (M/M) homozygous human stellate cells, 0.012 uM): 0.92 ± 0.12
- Relative PNPLA3 level vs Untreated (±Standard Deviation) (PNPLA3 mRNA [5]; (M/M) homozygous human stellate cells, 0.037 uM): 1.08 ± 0.04
- Relative PNPLA3 level vs Untreated (±Standard Deviation) (PNPLA3 mRNA [5]; (M/M) homozygous human stellate cells, 0.33 uM): 0.63 ± 0.03
- Relative PNPLA3 level vs Untreated (±Standard Deviation) (PNPLA3 mRNA [5]; (M/M) homozygous human stellate cells, 1 uM): 0.60 ± 0.05
- EC50 (PNPLA3 mRNA [5]; Homo sapiens, PNPLA3 dose-response, Stellate cell (M/M)): 62 nM
- PNPLA3 expression in stellate cells from different donors (in words) (PNPLA3 mRNA [5]; donors I/I and M/M, eight concentrations): effectively decreased PNPLA3 expression in a dose-dependent manner
- relative PNPLA3 mRNA in mouse livers (in words) ([6]; OSI-027 25, 10, 5, 2 mg/kg, PF-04691502 10, 5, 2, 1 mg/kg, five doses, 4 hours post last dose, p<0.00001 vs control): decreased PNPLA3 at each dose tested
- reduction of PNPLA3 expression in vivo ([6]; three different concentrations (10 mg/kg, 5 mg/kg, 2 mg/kg)): 50%
- Relative PNPLA3 mRNA levels (PNPLA3 mRNA [7]): 0.24 ± 0.12
- phosphorylated AKT (pAKT/AKT) over time (in words) [8, 10]: decreased at 4.5 hours
- pAKT (473)/AKT ([8]; human hepatocytes, mTORC2 pathway, time point not stated): 0.06
- PNPLA3 liver mRNA after exclusion of outliers and re-analysis (in words) ([9]; 6 hours post dose): more significant dose dependent decrease in PNPLA3 mRNA
- PNPLA3 liver mRNA, 6 hours post-dose (in words) ([9]; HS diet mice, QD oral gavage four days, OSI-027 50 mg/kg, PF-04691502 10 mg/kg): reduced PNPLA3 mRNA
- PNPLA3 liver mRNA, 12 hours post-dose (in words) ([9]; HS diet mice, QD oral gavage four days, OSI-027 50 mg/kg, PF-04691502 10 mg/kg, LY2157299 75 mg/kg): reduced PNPLA3 mRNA
- PNPLA3 liver mRNA, dose titration (in words) ([9]; HS diet mice, decreasing doses QD oral gavage four days, 6 hours post dose): dose dependent decrease
